From patent US10307403B2, “Polymorphic forms and process” (GALECTO BIOTECH AB, priority 2015, dated 2019)

Assays:
Format in all cases: physicochemical
[1] = Aerodynamic particle size determination (APSD) via New Generation Impactor (NGI); details: 20 mg in size 3 HPMC capsule, Plastiape Monodose inhaler
Experimental: To compare in vitro performance of the different forms for use in inhalation products, an aerodynamic particle size determination (APSD) was performed via New Generation Impactor (NGI) for Form 5 material produced via microfluidization and the amorphous form produced via spray drying. These were compared with the APSD obtained from micronized Form 1 material. For each APSD test, 20 mg 3,3′-Dideoxy-3,3′-bis-[4-(3-fluorophenyl)-1H-1,2,3-triazol-1-yl]-1,1′-sulfanediyl-di-β-D-galactopyranoside was filled into a size 3 HPMC capsule and actuated using a Plastiape Monodose inhaler device.

[2] = Solid form stability and moisture uptake
[3] = Stability of micronized Form 1 under ICH conditions
Description: There is no increase in impurities and both the particle size and crystalline form remain unchanged.

[4] = listed as Form 5 (microfluidization)
[5] = listed as Amorphous (Spray Drying)

SMILES: OC[C@H]1O[C@@H](S[C@@H]2O[C@H](CO)[C@H](O)[C@H](n3cc(-c4cccc(F)c4)nn3)[C@H]2O)[C@H](O)[C@@H](n2cc(-c3cccc(F)c3)nn2)[C@H]1O [Form 1, 3,3′-Dideoxy-3,3′-bis-[4-(3-fluorophenyl)-1H-1,2,3-triazol-1-yl]-1,1′-sulfanediyl-di-β-D-galactopyranoside]
- Mean Mass Aerodynamic Diameter (MMAD) [1]: in the respirable range
- Fine Particle Dose (FPD) ([1]; listed as Form 1 (micronized)): 7.4 mg
- Fine Particle Fraction (FPF) ([1]; listed as Form 1 (micronized)): 77%
- Mean Mass Aerodynamic Diameter (MMAD) ([1]; listed as Form 1 (micronized)): 2.6 μm
- Stability of the solid form (in words) [2]: stable and does not convert to the other forms over time
- Equilibrium water content after moisture pick-up ([2]; dried upon synthesis, then picks up moisture): 3-5%
- Appearance ([3]; 6 Months @ 40° C./75 RH): Conforms
- Assay ([3]; 6 Months @ 40° C./75 RH): 97.2%
- Particle Size D10 ([3]; 6 Months @ 40° C./75 RH): 0.50 μm
- Particle Size D50 ([3]; 6 Months @ 40° C./75 RH): 1.97 μm
- Particle Size D90 ([3]; 6 Months @ 40° C./75 RH): 4.68 μm
- Polymorphism (crystalline form found) ([3]; 6 Months @ 40° C./75 RH): Form 1
- Specified impurity DEX-IMP-284-B ([3]; 6 Months @ 40° C./75 RH): 0.89%
- Specified impurity DEX-IMP-284-C ([3]; 6 Months @ 40° C./75 RH): 0.05%
- Total Impurities ([3]; 6 Months @ 40° C./75 RH): 1.57%
- Unspecified impurity 0.922RRT ([3]; 6 Months @ 40° C./75 RH): 0.12%
- Unspecified impurity 1.057RRT ([3]; 6 Months @ 40° C./75 RH): 0.11%
- Unspecified impurity 1.184RRT ([3]; 6 Months @ 40° C./75 RH): 0.34%
- Water Content ([3]; 6 Months @ 40° C./75 RH): 5.2%
- Appearance ([3]; 12 Months 25° C./60 RH): Conforms
- Assay ([3]; 12 Months 25° C./60 RH): 97.7%
- Particle Size D10 ([3]; 12 Months 25° C./60 RH): 0.51 μm
- Particle Size D50 ([3]; 12 Months 25° C./60 RH): 1.84 μm
- Particle Size D90 ([3]; 12 Months 25° C./60 RH): 4.29 μm
- Polymorphism (crystalline form found) ([3]; 12 Months 25° C./60 RH): Form 1
- Specified impurity DEX-IMP-284-B ([3]; 12 Months 25° C./60 RH): 0.89%
- Specified impurity DEX-IMP-284-C ([3]; 12 Months 25° C./60 RH): 0.04%
- Total Impurities ([3]; 12 Months 25° C./60 RH): 1.54%
- Unspecified impurity 0.922RRT ([3]; 12 Months 25° C./60 RH): 0.12%
- Unspecified impurity 1.057RRT ([3]; 12 Months 25° C./60 RH): 0.10%
- Unspecified impurity 1.184RRT ([3]; 12 Months 25° C./60 RH): 0.34%
- Water Content ([3]; 12 Months 25° C./60 RH): 4.4%
- Overall stability conclusion (in words) ([3]; ICH conditions, Table 3A): stable both chemically and physically
- Particle Size D10 ([3]; Initial): 0.56 μm
- Polymorphism (crystalline form found) ([3]; Initial): Form 1
- Unspecified impurity 1.057RRT ([3]; Initial): 0.08%
- Unspecified impurity 1.184RRT ([3]; Initial): 0.34%
- Water Content ([3]; Initial): 4.2%
- Assay ([3]; Initial, criterion 95.0-105.0% w/w): 97.9%
- Appearance ([3]; Initial, criterion white to off-white solid): Conforms
- Specified impurity DEX-IMP-284-B ([3]; Initial, criterion ≤1% (a/a)): 0.90%
- Specified impurity DEX-IMP-284-C ([3]; Initial, criterion ≤1% (a/a)): 0.03%
- Unspecified impurity 0.922RRT ([3]; Initial, criterion ≤1% each (a/a)): 0.12%
- Total Impurities ([3]; Initial, criterion ≤2.5% (a/a)): 1.54%
- Particle Size D50 ([3]; Initial, target D50 ~2 μm): 2.37 μm
- Particle Size D90 ([3]; Initial, target D90 ≤5 μm): 5.09 μm

SMILES: OCC1O[C@@H](SC2O[C@H](CO)C(O)C(n3cc(-c4cccc(F)c4)nn3)[C@H]2O)C(O)C(n2cc(-c3cccc(F)c3)nn2)[C@H]1O (stereo partly drawn) [Form 5, 3,3′-Dideoxy-3,3′-bis-[4-(3-fluorophenyl)-1H-1,2,3-triazol-1-yl]-1,1′-sulfanediyl-di-β-D-galactopyranoside]
- Mean Mass Aerodynamic Diameter (MMAD) [1]: in the respirable range
- Fine Particle Dose (FPD) [1, 4]: 7.7 mg
- Fine Particle Fraction (FPF) [1, 4]: 63%
- Mean Mass Aerodynamic Diameter (MMAD) [1, 4]: 2.3 μm
- Stability of the solid form (in words) [2]: stable

SMILES: OCC1O[C@@H](SC2O[C@H](CO)C(O)C(n3cc(-c4cccc(F)c4)nn3)[C@H]2O)C(O)C(n2cc(-c3cccc(F)c3)nn2)[C@H]1O (stereo partly drawn) [Amorphous, 3,3′-Dideoxy-3,3′-bis-[4-(3-fluorophenyl)-1H-1,2,3-triazol-1-yl]-1,1′-sulfanediyl-di-β-D-galactopyranoside]
- Mean Mass Aerodynamic Diameter (MMAD) [1]: in the respirable range
- Fine Particle Dose (FPD) [1, 5]: 11.8 mg
- Fine Particle Fraction (FPF) [1, 5]: 91%
- Mean Mass Aerodynamic Diameter (MMAD) [1, 5]: 1.7 μm
